Source: the NIST ThermoML archive (doi:10.1021/je025538u)
± gives the expanded uncertainty stated by the source.

Legend:
[1] = 101.33 kPa, Liquid
[2] = cn = amount concentration of the nth substance listed, in mol/dm3; settings: 101.3 kPa, Liquid

## CCC(C)O (stereo not drawn) [butan-2-ol]
[1]; 293.15 K
  mass density: 806.6 ± 1.5 kg/m3
  viscosity: 3.663 ± 0.16 mPa·s
[1]; 303.15 K
  mass density: 799.3 ± 1.7 kg/m3
  viscosity: 2.527 ± 0.12 mPa·s
[1]; 313.15 K
  mass density: 792.2 ± 1.8 kg/m3
  viscosity: 1.801 ± 0.084 mPa·s
[1]; 333.15 K
  mass density: 778 ± 4 kg/m3
  viscosity: 1.025 ± 0.051 mPa·s

## CCCCCCCCCCCC(=O)O [dodecanoic acid] + CCC(C)O
[2]; 293.15 K, c1 = 0.0103
  mass density: 806.38 ± 1.5 kg/m3
  viscosity: 3.58 ± 0.16 mPa·s
[2]; 293.15 K, c1 = 0.05
  mass density: 807.27 ± 1.5 kg/m3
  viscosity: 3.665 ± 0.16 mPa·s
[2]; 293.15 K, c1 = 0.1003
  mass density: 807.29 ± 1.5 kg/m3
  viscosity: 3.7 ± 0.16 mPa·s
[2]; 293.15 K, c1 = 0.15
  mass density: 808.85 ± 1.5 kg/m3
  viscosity: 3.688 ± 0.16 mPa·s
[2]; 293.15 K, c1 = 0.2001
  mass density: 808.76 ± 1.5 kg/m3
  viscosity: 3.744 ± 0.17 mPa·s
[2]; 293.15 K, c1 = 0.35
  mass density: 812.86 ± 1.6 kg/m3
  viscosity: 3.841 ± 0.17 mPa·s
[2]; 303.15 K, c1 = 0.0103
  mass density: 798.71 ± 1.7 kg/m3
  viscosity: 2.547 ± 0.12 mPa·s
[2]; 303.15 K, c1 = 0.05
  mass density: 800.23 ± 1.7 kg/m3
  viscosity: 2.548 ± 0.12 mPa·s
[2]; 303.15 K, c1 = 0.1003
  mass density: 800.56 ± 1.7 kg/m3
  viscosity: 2.573 ± 0.12 mPa·s
[2]; 303.15 K, c1 = 0.15
  mass density: 801.14 ± 1.7 kg/m3
  viscosity: 2.585 ± 0.12 mPa·s
[2]; 303.15 K, c1 = 0.2001
  mass density: 801.85 ± 1.7 kg/m3
  viscosity: 2.624 ± 0.12 mPa·s
[2]; 303.15 K, c1 = 0.35
  mass density: 805.19 ± 1.7 kg/m3
  viscosity: 2.704 ± 0.12 mPa·s
[2]; 313.15 K, c1 = 0.0103
  mass density: 791.02 ± 1.8 kg/m3
  viscosity: 1.81 ± 0.084 mPa·s
[2]; 313.15 K, c1 = 0.05
  mass density: 793.39 ± 1.8 kg/m3
  viscosity: 1.818 ± 0.085 mPa·s
[2]; 313.15 K, c1 = 0.1003
  mass density: 794.11 ± 1.8 kg/m3
  viscosity: 1.851 ± 0.086 mPa·s
[2]; 313.15 K, c1 = 0.15
  mass density: 794.51 ± 1.8 kg/m3
  viscosity: 1.865 ± 0.087 mPa·s
[2]; 313.15 K, c1 = 0.2001
  mass density: 794.64 ± 1.8 kg/m3
  viscosity: 1.877 ± 0.087 mPa·s
[2]; 313.15 K, c1 = 0.35
  mass density: 797.47 ± 1.8 kg/m3
  viscosity: 1.951 ± 0.09 mPa·s
[2]; 333.15 K, c1 = 0.0103
  mass density: 778.39 ± 2.1 kg/m3
  viscosity: 1.05 ± 0.052 mPa·s
[2]; 333.15 K, c1 = 0.05
  mass density: 779.62 ± 2.1 kg/m3
  viscosity: 1.04 ± 0.051 mPa·s
[2]; 333.15 K, c1 = 0.1003
  mass density: 780.76 ± 2.1 kg/m3
  viscosity: 1.07 ± 0.053 mPa·s
[2]; 333.15 K, c1 = 0.15
  mass density: 782 ± 2.1 kg/m3
  viscosity: 1.08 ± 0.053 mPa·s
[2]; 333.15 K, c1 = 0.2001
  mass density: 782.9 ± 2.1 kg/m3
  viscosity: 1.1 ± 0.054 mPa·s
[2]; 333.15 K, c1 = 0.35
  mass density: 785.3 ± 2.1 kg/m3
  viscosity: 1.15 ± 0.056 mPa·s

## CCCCCCCCCCCCCCCC(=O)O [hexadecanoic acid] + CCC(C)O
[2]; 293.15 K, c1 = 0.01
  mass density: 807.66 ± 1.6 kg/m3
  viscosity: 3.53 ± 0.16 mPa·s
[2]; 293.15 K, c1 = 0.05
  mass density: 807.67 ± 1.6 kg/m3
  viscosity: 3.616 ± 0.16 mPa·s
[2]; 293.15 K, c1 = 0.1
  mass density: 809.21 ± 1.6 kg/m3
  viscosity: 3.613 ± 0.16 mPa·s
[2]; 293.15 K, c1 = 0.1501
  mass density: 810.16 ± 1.5 kg/m3
  viscosity: 3.7 ± 0.16 mPa·s
[2]; 293.15 K, c1 = 0.2001
  mass density: 810.6 ± 1.6 kg/m3
  viscosity: 3.828 ± 0.17 mPa·s
[2]; 293.15 K, c1 = 0.3501
  mass density: 813.04 ± 1.5 kg/m3
  viscosity: 4.056 ± 0.18 mPa·s
[2]; 303.15 K, c1 = 0.01
  mass density: 799.68 ± 1.7 kg/m3
  viscosity: 2.464 ± 0.11 mPa·s
[2]; 303.15 K, c1 = 0.05
  mass density: 800.09 ± 1.7 kg/m3
  viscosity: 2.499 ± 0.11 mPa·s
[2]; 303.15 K, c1 = 0.1
  mass density: 801.34 ± 1.7 kg/m3
  viscosity: 2.512 ± 0.11 mPa·s
[2]; 303.15 K, c1 = 0.1501
  mass density: 802.89 ± 1.7 kg/m3
  viscosity: 2.585 ± 0.12 mPa·s
[2]; 303.15 K, c1 = 0.2001
  mass density: 802.96 ± 1.7 kg/m3
  viscosity: 2.665 ± 0.12 mPa·s
[2]; 303.15 K, c1 = 0.3501
  mass density: 806.24 ± 1.7 kg/m3
  viscosity: 2.834 ± 0.13 mPa·s
[2]; 313.15 K, c1 = 0.01
  mass density: 792.63 ± 1.8 kg/m3
  viscosity: 1.751 ± 0.082 mPa·s
[2]; 313.15 K, c1 = 0.05
  mass density: 792.74 ± 1.8 kg/m3
  viscosity: 1.789 ± 0.083 mPa·s
[2]; 313.15 K, c1 = 0.1
  mass density: 794.66 ± 1.8 kg/m3
  viscosity: 1.808 ± 0.084 mPa·s
[2]; 313.15 K, c1 = 0.1501
  mass density: 795.01 ± 1.8 kg/m3
  viscosity: 1.85 ± 0.086 mPa·s
[2]; 313.15 K, c1 = 0.2001
  mass density: 795.11 ± 1.8 kg/m3
  viscosity: 1.921 ± 0.089 mPa·s
[2]; 313.15 K, c1 = 0.3501
  mass density: 799.34 ± 1.8 kg/m3
  viscosity: 2.045 ± 0.094 mPa·s
[2]; 333.15 K, c1 = 0.05
  mass density: 782.3 ± 2.1 kg/m3
  viscosity: 1.09 ± 0.053 mPa·s
[2]; 333.15 K, c1 = 0.1
  mass density: 782.9 ± 2.1 kg/m3
  viscosity: 1.08 ± 0.053 mPa·s
[2]; 333.15 K, c1 = 0.1501
  mass density: 783.19 ± 2.1 kg/m3
  viscosity: 1.13 ± 0.055 mPa·s
[2]; 333.15 K, c1 = 0.2001
  mass density: 783.51 ± 2.1 kg/m3
  viscosity: 1.14 ± 0.056 mPa·s
[2]; 333.15 K, c1 = 0.3501
  mass density: 787.5 ± 2.2 kg/m3
  viscosity: 1.27 ± 0.061 mPa·s

## CCCCCCCCCCCCCCCCCC(=O)O [octadecanoic acid] + CCC(C)O
[2]; 293.15 K, c1 = 0.01
  mass density: 806.45 ± 1.5 kg/m3
  viscosity: 3.611 ± 0.16 mPa·s
[2]; 293.15 K, c1 = 0.05
  mass density: 806.9 ± 1.6 kg/m3
  viscosity: 3.679 ± 0.16 mPa·s
[2]; 293.15 K, c1 = 0.1
  mass density: 813.95 ± 8 kg/m3
  viscosity: 3.795 ± 0.17 mPa·s
[2]; 293.15 K, c1 = 0.15
  mass density: 810.78 ± 1.6 kg/m3
  viscosity: 3.785 ± 0.17 mPa·s
[2]; 293.15 K, c1 = 0.2
  mass density: 811.62 ± 1.5 kg/m3
  viscosity: 3.799 ± 0.17 mPa·s
[2]; 293.15 K, c1 = 0.3501
  mass density: 814.68 ± 1.6 kg/m3
  viscosity: 4.177 ± 0.18 mPa·s
[2]; 303.15 K, c1 = 0.01
  mass density: 798.83 ± 1.7 kg/m3
  viscosity: 2.499 ± 0.11 mPa·s
[2]; 303.15 K, c1 = 0.05
  mass density: 799.7 ± 1.7 kg/m3
  viscosity: 2.531 ± 0.12 mPa·s
[2]; 303.15 K, c1 = 0.1
  mass density: 806.09 ± 8 kg/m3
  viscosity: 2.466 ± 0.11 mPa·s
[2]; 303.15 K, c1 = 0.15
  mass density: 803.5 ± 1.7 kg/m3
  viscosity: 2.627 ± 0.12 mPa·s
[2]; 303.15 K, c1 = 0.2
  mass density: 804.54 ± 1.7 kg/m3
  viscosity: 2.584 ± 0.12 mPa·s
[2]; 303.15 K, c1 = 0.3501
  mass density: 806.92 ± 1.7 kg/m3
  viscosity: 2.919 ± 0.13 mPa·s
[2]; 313.15 K, c1 = 0.01
  mass density: 792.46 ± 1.8 kg/m3
  viscosity: 1.766 ± 0.083 mPa·s
[2]; 313.15 K, c1 = 0.05
  mass density: 792.65 ± 1.8 kg/m3
  viscosity: 1.808 ± 0.084 mPa·s
[2]; 313.15 K, c1 = 0.1
  mass density: 796.45 ± 1.8 kg/m3
  viscosity: 1.79 ± 0.084 mPa·s
[2]; 313.15 K, c1 = 0.15
  mass density: 796.91 ± 1.8 kg/m3
  viscosity: 1.886 ± 0.088 mPa·s
[2]; 313.15 K, c1 = 0.2
  mass density: 797.76 ± 1.8 kg/m3
  viscosity: 1.881 ± 0.087 mPa·s
[2]; 313.15 K, c1 = 0.3501
  mass density: 800.5 ± 1.8 kg/m3
  viscosity: 2.017 ± 0.093 mPa·s
[2]; 333.15 K, c1 = 0.05
  mass density: 782.79 ± 2.1 kg/m3
  viscosity: 1.09 ± 0.053 mPa·s
[2]; 333.15 K, c1 = 0.1
  mass density: 783.92 ± 2.2 kg/m3
  viscosity: 1.1 ± 0.054 mPa·s
[2]; 333.15 K, c1 = 0.15
  mass density: 784.23 ± 2.1 kg/m3
  viscosity: 1.16 ± 0.056 mPa·s
[2]; 333.15 K, c1 = 0.2
  mass density: 785.41 ± 2.2 kg/m3
  viscosity: 1.16 ± 0.056 mPa·s
[2]; 333.15 K, c1 = 0.3501
  mass density: 788.89 ± 2.2 kg/m3
  viscosity: 1.36 ± 0.065 mPa·s
